Laboratory results: ChEMBL document CHEMBL1159140, “DuP 747: sar study” (1992)

Legend:
[1] = organism: Mus musculus; experiment: animal or person; type: functional; conditions: po
[2] = organism: Mus musculus; experiment: animal or person; type: functional; conditions: sc

Compound | ED50 [1] [mg/kg] | ED50 [2] [mg/kg]
COc1ccc2c(c1)CC[C@H](N1C=CN(C)CC1)[C@H]2N(C)C(C)=O.Cl | > 81 | > 81
COc1cccc2c1CC[C@H](N1CCCC1)[C@H]2N(C)C(=O)CCc1ccc(Cl)c(Cl)c1.Cl | 81 | 38
COc1ccc2c(c1)CC[C@H](N1CC=CC1)[C@H]2N(C)C(C)=O.Cl | 3.4 | 0.24
CN(C(=O)Cc1ccc(Cl)c(Cl)c1)[C@H]1CCc2ccccc2[C@@H]1N1CCCC1.Cl | > 81 | 0.16
CN(C(=O)Cc1ccc(Cl)c(Cl)c1)[C@H]1c2cccc(OC(=O)c3ccccc3)c2CC[C@@H]1N1CCCC1.Cl | 6.4 | 0.71
COc1cccc2c1CC[C@H](N1CCCC1)[C@H]2N(C)C(=O)CSc1ccc(Cl)c(Cl)c1.Cl | > 81 | 47
COc1ccc2c(c1)CC[C@H](N1CCCCC1)[C@H]2N(C)C(C)=O.Cl | > 81 | > 81
CN(C(=O)Cc1ccc(Cl)c(Cl)c1)[C@H]1c2ccccc2-c2ccccc2[C@@H]1N1CCCC1.Cl | > 81 | > 81
COc1ccc2c(c1)CC[C@H](N1CCCC1)[C@H]2N(C)C=O.Cl | 81 | 47
